Data as given in PubChem BioAssay (NCI).
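Five concentrations, 48 hours, 96-well plates. TGI: total growth inhibition.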

Legend:
Assay in all cases: inhibition of tumour cell growth, NCI panel, 48 h
786-0 renal = tested on: 786-0 renal
A498 renal = tested on: A498 renal
A549 NSCLC = tested on: A549 NSCLC
ACHN renal = tested on: ACHN renal
CAKI-1 renal = tested on: CAKI-1 renal
CCRF-CEM leukemia = tested on: CCRF-CEM leukemia
COLO 205 colon = tested on: COLO 205 colon
DLD-1 colon = tested on: DLD-1 colon
DMS 114 small cell lung = tested on: DMS 114 small cell lung
DMS 273 small cell lung = tested on: DMS 273 small cell lung
DU-145 prostate = tested on: DU-145 prostate
EKVX NSCLC = tested on: EKVX NSCLC
HCC-2998 colon = tested on: HCC-2998 colon
HCT-116 colon = tested on: HCT-116 colon
HCT-15 colon = tested on: HCT-15 colon
HL-60(TB) leukemia = tested on: HL-60(TB) leukemia
HOP-18 NSCLC = tested on: HOP-18 NSCLC
HOP-62 NSCLC = tested on: HOP-62 NSCLC
HOP-92 NSCLC = tested on: HOP-92 NSCLC
HS 578T breast = tested on: HS 578T breast
HT29 colon = tested on: HT29 colon
IGROV1 ovarian = tested on: IGROV1 ovarian
K-562 leukemia = tested on: K-562 leukemia
KM12 colon = tested on: KM12 colon
KM20L2 colon = tested on: KM20L2 colon
LOX IMVI melanoma = tested on: LOX IMVI melanoma
LXFL 529 NSCLC = tested on: LXFL 529 NSCLC
M14 melanoma = tested on: M14 melanoma
M19-MEL melanoma = tested on: M19-MEL melanoma
MALME-3M melanoma = tested on: MALME-3M melanoma
MCF7 breast = tested on: MCF7 breast
MDA-MB-231 breast = tested on: MDA-MB-231 breast
MDA-MB-435 = tested on: MDA-MB-435
MDA-N = tested on: MDA-N
MOLT-4 leukemia = tested on: MOLT-4 leukemia
NCI-H226 lung = tested on: NCI-H226 lung
NCI-H23 lung = tested on: NCI-H23 lung
NCI-H460 lung = tested on: NCI-H460 lung
NCI-H522 lung = tested on: NCI-H522 lung
OVCAR-3 ovarian = tested on: OVCAR-3 ovarian
OVCAR-4 ovarian = tested on: OVCAR-4 ovarian
OVCAR-5 ovarian = tested on: OVCAR-5 ovarian
OVCAR-8 ovarian = tested on: OVCAR-8 ovarian
PC-3 prostate = tested on: PC-3 prostate
RPMI-8226 leukemia = tested on: RPMI-8226 leukemia
RXF 393 renal = tested on: RXF 393 renal
SF-268 CNS = tested on: SF-268 CNS
SF-295 CNS = tested on: SF-295 CNS
SF-539 CNS = tested on: SF-539 CNS
SK-MEL-2 melanoma = tested on: SK-MEL-2 melanoma
SK-MEL-28 melanoma = tested on: SK-MEL-28 melanoma
SK-MEL-5 melanoma = tested on: SK-MEL-5 melanoma
SK-OV-3 ovarian = tested on: SK-OV-3 ovarian
SN12C renal = tested on: SN12C renal
SNB-19 CNS = tested on: SNB-19 CNS
SNB-78 CNS = tested on: SNB-78 CNS
SR leukemia = tested on: SR leukemia
SW-620 colon = tested on: SW-620 colon
T-47D breast = tested on: T-47D breast
TK-10 renal = tested on: TK-10 renal
U251 CNS = tested on: U251 CNS
UACC-257 melanoma = tested on: UACC-257 melanoma
UACC-62 melanoma = tested on: UACC-62 melanoma
UO-31 renal = tested on: UO-31 renal
XF 498 CNS = tested on: XF 498 CNS
RXF-631 renal = tested on: RXF-631 renal
SNB-75 CNS = tested on: SNB-75 CNS

## CCOCC(=O)N[C@H]1CCc2cc(OC)c(OC)c(OC)c2-c2ccc(OC)c(=O)cc21
786-0 renal
  TGI: > 100 µM
A498 renal
  TGI: 8.87 µM
A549 NSCLC
  TGI: > 100 µM
ACHN renal
  TGI: > 100 µM
CAKI-1 renal
  TGI: 30.1 µM
CCRF-CEM leukemia
  TGI: > 100 µM
COLO 205 colon
  TGI: 0.0205 µM
DLD-1 colon
  TGI: > 100 µM
DMS 114 small cell lung
  TGI: 0.0289 µM
DMS 273 small cell lung
  TGI: > 100 µM
DU-145 prostate
  TGI: 0.107 µM
EKVX NSCLC
  TGI: > 100 µM
HCC-2998 colon
  TGI: 5.27 µM
HCT-116 colon
  TGI: 10.7 µM
HCT-15 colon
  TGI: 19.1 µM
HL-60(TB) leukemia
  TGI: 0.101 µM
HOP-18 NSCLC
  TGI: > 100 µM
HOP-62 NSCLC
  TGI: > 100 µM
HOP-92 NSCLC
  TGI: 7.24 µM
HS 578T breast
  TGI: > 100 µM
HT29 colon
  TGI: > 8.15 µM
IGROV1 ovarian
  TGI: > 100 µM
K-562 leukemia
  TGI: > 100 µM
KM12 colon
  TGI: 0.0334 µM
KM20L2 colon
  TGI: 0.0375 µM
LOX IMVI melanoma
  TGI: > 100 µM
LXFL 529 NSCLC
  TGI: > 100 µM
M14 melanoma
  TGI: 20.2 µM
M19-MEL melanoma
  TGI: > 100 µM
MALME-3M melanoma
  TGI: > 100 µM
MCF7 breast
  TGI: > 100 µM
MDA-MB-231 breast
  TGI: > 100 µM
MDA-MB-435
  TGI: < 0.0196 µM
MDA-N
  TGI: < 0.0196 µM
MOLT-4 leukemia
  TGI: > 52.7 µM
NCI-H226 lung
  TGI: 2.52 µM
NCI-H23 lung
  TGI: 0.178 µM
NCI-H460 lung
  TGI: > 16.7 µM
NCI-H522 lung
  TGI: 0.0768 µM
OVCAR-3 ovarian
  TGI: 0.0849 µM
OVCAR-4 ovarian
  TGI: > 100 µM
OVCAR-5 ovarian
  TGI: > 100 µM
OVCAR-8 ovarian
  TGI: 17 µM
PC-3 prostate
  TGI: > 100 µM
RPMI-8226 leukemia
  TGI: > 100 µM
RXF 393 renal
  TGI: > 100 µM
SF-268 CNS
  TGI: > 100 µM
SF-295 CNS
  TGI: 0.379 µM
SF-539 CNS
  TGI: 0.0328 µM
SK-MEL-2 melanoma
  TGI: > 15.8 µM
SK-MEL-28 melanoma
  TGI: > 100 µM
SK-MEL-5 melanoma
  TGI: 0.36 µM
SK-OV-3 ovarian
  TGI: 15 µM
SN12C renal
  TGI: > 100 µM
SNB-19 CNS
  TGI: > 100 µM
SNB-78 CNS
  TGI: > 100 µM
SR leukemia
  TGI: > 100 µM
SW-620 colon
  TGI: > 100 µM
T-47D breast
  TGI: > 100 µM
TK-10 renal
  TGI: > 100 µM
U251 CNS
  TGI: 8.9 µM
UACC-257 melanoma
  TGI: > 100 µM
UACC-62 melanoma
  TGI: > 100 µM
UO-31 renal
  TGI: > 100 µM
XF 498 CNS
  TGI: > 60 µM

## Cc1cc(N(CCC#N)CCC#N)ccc1/C=C1\N=C(c2cc([N+](=O)[O-])ccc2Cl)N(c2cccc(Cl)c2)C1=O
786-0 renal
  TGI: > 100 µM
A498 renal
  TGI: > 100 µM
A549 NSCLC
  TGI: > 100 µM
ACHN renal
  TGI: > 100 µM
CAKI-1 renal
  TGI: > 100 µM
CCRF-CEM leukemia
  TGI: > 100 µM
COLO 205 colon
  TGI: > 100 µM
DLD-1 colon
  TGI: > 100 µM
DMS 114 small cell lung
  TGI: > 100 µM
DMS 273 small cell lung
  TGI: > 100 µM
EKVX NSCLC
  TGI: > 100 µM
HCC-2998 colon
  TGI: > 100 µM
HCT-116 colon
  TGI: > 100 µM
HCT-15 colon
  TGI: > 100 µM
HL-60(TB) leukemia
  TGI: > 100 µM
HOP-18 NSCLC
  TGI: > 100 µM
HOP-62 NSCLC
  TGI: > 100 µM
HOP-92 NSCLC
  TGI: > 100 µM
HT29 colon
  TGI: > 100 µM
IGROV1 ovarian
  TGI: > 100 µM
K-562 leukemia
  TGI: > 100 µM
KM12 colon
  TGI: > 100 µM
KM20L2 colon
  TGI: > 100 µM
LXFL 529 NSCLC
  TGI: > 100 µM
M14 melanoma
  TGI: > 100 µM
M19-MEL melanoma
  TGI: > 100 µM
MALME-3M melanoma
  TGI: > 100 µM
MOLT-4 leukemia
  TGI: > 100 µM
NCI-H226 lung
  TGI: > 100 µM
NCI-H23 lung
  TGI: > 100 µM
NCI-H460 lung
  TGI: > 100 µM
NCI-H522 lung
  TGI: > 100 µM
OVCAR-3 ovarian
  TGI: > 100 µM
OVCAR-4 ovarian
  TGI: > 100 µM
OVCAR-5 ovarian
  TGI: > 100 µM
OVCAR-8 ovarian
  TGI: > 100 µM
RPMI-8226 leukemia
  TGI: > 100 µM
RXF-631 renal
  TGI: > 100 µM
SF-268 CNS
  TGI: > 100 µM
SF-295 CNS
  TGI: > 100 µM
SF-539 CNS
  TGI: > 100 µM
SK-MEL-2 melanoma
  TGI: > 100 µM
SK-MEL-28 melanoma
  TGI: > 100 µM
SK-MEL-5 melanoma
  TGI: > 100 µM
SK-OV-3 ovarian
  TGI: > 100 µM
SN12C renal
  TGI: > 100 µM
SNB-19 CNS
  TGI: > 100 µM
SNB-75 CNS
  TGI: > 100 µM
SNB-78 CNS
  TGI: > 100 µM
SR leukemia
  TGI: > 100 µM
SW-620 colon
  TGI: > 100 µM
TK-10 renal
  TGI: > 100 µM
U251 CNS
  TGI: > 100 µM
UACC-257 melanoma
  TGI: > 100 µM
UACC-62 melanoma
  TGI: > 100 µM
UO-31 renal
  TGI: > 100 µM

## CNC(=O)C1CCc2nnc(-c3ccccc3)n21 (configuration not stated)
786-0 renal
  TGI: > 100 µM
A498 renal
  TGI: > 100 µM
A549 NSCLC
  TGI: > 100 µM
ACHN renal
  TGI: > 100 µM
CAKI-1 renal
  TGI: > 100 µM
CCRF-CEM leukemia
  TGI: > 100 µM
COLO 205 colon
  TGI: > 100 µM
DLD-1 colon
  TGI: > 100 µM
DMS 114 small cell lung
  TGI: > 100 µM
DMS 273 small cell lung
  TGI: > 100 µM
EKVX NSCLC
  TGI: > 100 µM
HCC-2998 colon
  TGI: > 100 µM
HCT-116 colon
  TGI: > 100 µM
HCT-15 colon
  TGI: > 100 µM
HL-60(TB) leukemia
  TGI: > 100 µM
HOP-18 NSCLC
  TGI: > 100 µM
HOP-62 NSCLC
  TGI: > 100 µM
IGROV1 ovarian
  TGI: > 100 µM
K-562 leukemia
  TGI: > 100 µM
KM12 colon
  TGI: > 100 µM
KM20L2 colon
  TGI: > 100 µM
LXFL 529 NSCLC
  TGI: > 100 µM
M14 melanoma
  TGI: > 100 µM
M19-MEL melanoma
  TGI: > 100 µM
MALME-3M melanoma
  TGI: > 100 µM
MOLT-4 leukemia
  TGI: > 100 µM
NCI-H226 lung
  TGI: > 100 µM
NCI-H460 lung
  TGI: > 100 µM
NCI-H522 lung
  TGI: > 100 µM
OVCAR-3 ovarian
  TGI: > 100 µM
OVCAR-4 ovarian
  TGI: > 100 µM
RPMI-8226 leukemia
  TGI: > 100 µM
RXF 393 renal
  TGI: > 100 µM
RXF-631 renal
  TGI: > 100 µM
SF-268 CNS
  TGI: > 100 µM
SF-539 CNS
  TGI: > 100 µM
SK-MEL-2 melanoma
  TGI: > 100 µM
SK-MEL-28 melanoma
  TGI: > 100 µM
SK-MEL-5 melanoma
  TGI: > 100 µM
SK-OV-3 ovarian
  TGI: > 100 µM
SN12C renal
  TGI: > 100 µM
SNB-19 CNS
  TGI: > 100 µM
SNB-75 CNS
  TGI: > 100 µM
SNB-78 CNS
  TGI: > 100 µM
SR leukemia
  TGI: > 100 µM
SW-620 colon
  TGI: > 100 µM
TK-10 renal
  TGI: > 100 µM
U251 CNS
  TGI: > 100 µM
UACC-257 melanoma
  TGI: > 100 µM
UACC-62 melanoma
  TGI: > 100 µM
UO-31 renal
  TGI: > 100 µM
